Drawing on patent US20230102554A1 (GB002, INC., priority 2019, published 2023), this text covers IC50 for 21 molecules.

In assay [1] the target is T1, Human PDGFRα, cytoplasmic domain (GST-PDGFRα) (Homo sapiens, UniProt P16234).
T1 construct: made in house
Kind of assay: Human PDGFRα biochemical inhibition assay (off-chip Mobility Shift Assay).

Assay [2] has as its target T2, Human PDGFRβ, cytoplasmic domain (GST-PDGFRβ) (Homo sapiens, UniProt P09619).
T2 construct: made in house
Kind of assay: Human PDGFRβ biochemical inhibition assay (off-chip Mobility Shift Assay). The method, boiled down: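 GST-tagged cytoplasmic domain (aa 557-1106) from baculovirus was incubated 1 h at room temperature with compound, CSKtide, ATP at Km and Mg²⁺ in HEPES buffer, pH 7.5. Phosphorylated and unphosphorylated peptide were separated by off-chip mobility shift, and the product ratio P/(P+S) gave percent inhibition.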

T1 sequence (P16234 550-1089 T674I): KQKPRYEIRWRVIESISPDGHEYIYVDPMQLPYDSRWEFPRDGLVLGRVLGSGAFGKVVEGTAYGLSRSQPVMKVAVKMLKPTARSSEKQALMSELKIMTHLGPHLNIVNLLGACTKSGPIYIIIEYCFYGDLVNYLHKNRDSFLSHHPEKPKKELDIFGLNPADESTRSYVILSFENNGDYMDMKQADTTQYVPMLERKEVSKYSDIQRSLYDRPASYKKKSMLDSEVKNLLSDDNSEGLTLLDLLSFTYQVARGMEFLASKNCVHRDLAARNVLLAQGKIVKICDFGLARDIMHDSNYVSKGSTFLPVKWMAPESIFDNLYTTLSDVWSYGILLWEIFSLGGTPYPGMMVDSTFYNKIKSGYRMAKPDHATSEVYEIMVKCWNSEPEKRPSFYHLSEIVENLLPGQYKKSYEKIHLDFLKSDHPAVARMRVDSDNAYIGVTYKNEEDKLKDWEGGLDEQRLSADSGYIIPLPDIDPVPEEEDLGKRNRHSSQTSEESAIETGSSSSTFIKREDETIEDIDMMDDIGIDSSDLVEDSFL
T2 sequence (P09619 with tags, fused parts or gaps): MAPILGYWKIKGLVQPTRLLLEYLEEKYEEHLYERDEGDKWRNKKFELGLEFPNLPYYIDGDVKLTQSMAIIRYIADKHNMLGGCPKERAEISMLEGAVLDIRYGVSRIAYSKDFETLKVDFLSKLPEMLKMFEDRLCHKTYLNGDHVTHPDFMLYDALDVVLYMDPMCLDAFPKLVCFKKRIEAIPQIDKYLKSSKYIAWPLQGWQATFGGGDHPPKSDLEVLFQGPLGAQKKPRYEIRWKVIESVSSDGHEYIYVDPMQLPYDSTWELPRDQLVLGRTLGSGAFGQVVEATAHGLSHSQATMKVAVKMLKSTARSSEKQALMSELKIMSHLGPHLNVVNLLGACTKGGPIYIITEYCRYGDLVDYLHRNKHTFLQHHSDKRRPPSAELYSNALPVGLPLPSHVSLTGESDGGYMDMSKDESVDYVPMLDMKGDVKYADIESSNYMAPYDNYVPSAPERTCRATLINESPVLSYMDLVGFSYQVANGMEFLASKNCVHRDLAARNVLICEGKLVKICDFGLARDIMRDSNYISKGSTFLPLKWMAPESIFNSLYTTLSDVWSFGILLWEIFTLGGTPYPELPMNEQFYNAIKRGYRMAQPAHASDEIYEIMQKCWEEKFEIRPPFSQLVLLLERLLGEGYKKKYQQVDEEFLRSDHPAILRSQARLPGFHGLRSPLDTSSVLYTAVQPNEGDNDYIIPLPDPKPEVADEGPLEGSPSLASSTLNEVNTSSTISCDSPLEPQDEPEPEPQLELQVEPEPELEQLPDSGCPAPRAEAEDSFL

By IC50 is commonly meant the point on the concentration scale where inhibition reaches its midpoint. As for `CCn1cc2ncc(N[C@@H](C)c3cccc(NC(=O)c4cncc(C(C)(C)F)c4)c3)nc2n1` [Compound 280, (S)-N-(3-(1-((2-ethyl-2H-pyrazolo[3,4-b]pyrazin-6-yl)amino)ethyl)phenyl)-5-(2-fluoropropan-2-yl)nicotinamide], the IC50 in assay [1] and in assay [2] was under 300 nM throughout.
Take `CCn1cc2ncc(N[C@@H](C)c3cccc(NC(=O)c4cncc(Cl)c4)c3)nc2n1` [Compound 281, (S)-5-chloro-N-(3-(1-((2-ethyl-2H-pyrazolo[3,4-b]pyrazin-6-yl)amino)ethyl)phenyl) nicotinamide]: the IC50 in assay [1] is under 300 nM; in assay [2], 300 to 1000 nM.
Regarding `CCn1cc2ncc(N[C@@H](C)c3cccc(NC(=O)c4ccc(OC(F)(F)F)nc4)c3)nc2n1` [Compound 282, (S)-N-(3-(1-((2-ethyl-2H-pyrazolo[3,4-b]pyrazin-6-yl)amino)ethyl)phenyl)-6-(trifluoromethoxy)nicotinamide], the results for the IC50 in assay [1] and in assay [2] were under 300 nM and 300 to 1000 nM, respectively.
`CCn1cc2ncc(N[C@@H](C)c3cccc(NC(=O)c4ccc(C5CC5)nc4)c3)nc2n1` [Compound 283, (S)-6-cyclopropyl-N-(3-(1-((2-ethyl-2H-pyrazolo[3,4-b]pyrazin-6-yl)amino)ethyl)phenyl)nicotinamide]: the 50% inhibitory concentration (IC50) in assay [1] and in assay [2] was under 300 nM in each case.
For `CCn1cc2ncc(N[C@@H](C)c3cccc(NC(=O)c4ccc(C(F)(F)F)nc4)c3)nc2n1` [Compound 284, (S)-N-(3-(1-((2-ethyl-2H-pyrazolo[3,4-b]pyrazin-6-yl)amino)ethyl)phenyl)-6-(trifluoromethyl)nicotinamide], the IC50 in assay [1] and in assay [2] was 300 to 1000 nM throughout.
In the case of `CCn1cc2ncc(N[C@@H](C)c3cccc(NC(=O)c4ccc(OC)nc4)c3)nc2n1` [Compound 285, (S)-N-(3-(1-((2-ethyl-2H-pyrazolo[3,4-b]pyrazin-6-yl)amino)ethyl)phenyl)-6-methoxynicotinamide], the IC50 in assay [1] is 300 to 1000 nM; in assay [2], at least 1000 nM.
The like results for `CCOc1ccc(C(=O)Nc2cccc([C@H](C)Nc3cnc4cn(CC)nc4n3)c2)cn1` [Compound 286, (S)-6-ethoxy-N-(3-(1-((2-ethyl-2H-pyrazolo[3,4-b]pyrazin-6-yl)amino)ethyl)phenyl) nicotinamide] were, in that order, under 300 nM and 300 to 1000 nM.
The like results for `CCn1cc2ncc(N[C@@H](C)c3cccc(NC(=O)c4ccc(OC(C)C)nc4)c3)nc2n1` [Compound 287, (S)-N-(3-(1-((2-ethyl-2H-pyrazolo[3,4-b]pyrazin-6-yl)amino)ethyl)phenyl)-6-isopropoxynicotinamide] were, in that order, under 300 nM and under 300 nM.
Taken in the same sequence, the figures for `CCn1cc2ncc(N[C@@H](C)c3cccc(NC(=O)c4cnc(C(F)(F)F)c(C)c4)c3)nc2n1` [Compound 288, (S)-N-(3-(1-((2-ethyl-2H-pyrazolo[3,4-b]pyrazin-6-yl)amino)ethyl)phenyl)-5-methyl-6-(trifluoromethyl)nicotinamide] were under 300 nM and under 300 nM.
For `CCn1cc2ncc(N[C@@H](C)c3cccc(NC(=O)c4cnc(C#N)c(C)c4)c3)nc2n1` [Compound 289, (S)-6-cyano-N-(3-(1-((2-ethyl-2H-pyrazolo[3,4-b]pyrazin-6-yl)amino)ethyl)phenyl)-5-methylnicotinamide], the 50% inhibitory concentration (IC50) in assay [1] was under 300 nM; in assay [2] it was 300 to 1000 nM.
As to `CCn1cc2ncc(N[C@@H](C)c3cccc(NC(=O)c4cnc(OC)c(C)c4)c3)nc2n1` [Compound 290, (S)-N-(3-(1-((2-ethyl-2H-pyrazolo[3,4-b]pyrazin-6-yl)amino)ethyl)phenyl)-6-methoxy-5-methylnicotinamide], the concentration for half-maximal inhibition (IC50) in assay [1] and in assay [2] was under 300 nM throughout.
For the molecule `CCn1cc2ncc(N[C@@H](C)c3cccc(NC(=O)c4ccc(C5CC5)s4)c3)nc2n1` [Compound 291, (S)-5-cyclopropyl-N-(3-(1-((2-ethyl-2H-pyrazolo[3,4-b]pyrazin-6-yl)amino)ethyl)phenyl)thiophene-2-carboxamide], the 50% inhibitory concentration (IC50) in assay [1] and in assay [2] was under 300 nM each time.
Consider `CCn1cc2ncc(N[C@@H](C)c3cccc(NC(=O)c4ccc(C(F)F)s4)c3)nc2n1` [Compound 292, (S)-5-(difluoromethyl)-N-(3-(1-((2-ethyl-2H-pyrazolo[3,4-b]pyrazin-6-yl)amino)ethyl)phenyl)thiophene-2-carboxamide], for which the IC50 in assay [1] and in assay [2] was under 300 nM in each case.
For the molecule `CCn1cc2ncc(N[C@@H](C)c3cccc(NC(=O)c4ccc(Cl)s4)c3)nc2n1` [Compound 293, (S)-5-chloro-N-(3-(1-((2-ethyl-2H-pyrazolo[3,4-b]pyrazin-6-yl)amino)ethyl)phenyl)thiophene-2-carboxamide], the IC50 in assay [1] and in assay [2] was under 300 nM each time.
For the molecule `CCn1cc2ncc(N[C@@H](C)c3cccc(NC(=O)c4cnc(C)s4)c3)nc2n1` [Compound 294, (S)-N-(3-(1-((2-ethyl-2H-pyrazolo[3,4-b]pyrazin-6-yl)amino)ethyl)phenyl)-2-methylthiazole-5-carboxamide], the IC50 in assay [1] and in assay [2] was 300 to 1000 nM each time.
On to `CCn1cc2ncc(N[C@@H](C)c3cccc(NC(=O)c4cnc(C(F)(F)F)s4)c3)nc2n1` [Compound 295, (S)-N-(3-(1-((2-ethyl-2H-pyrazolo[3,4-b]pyrazin-6-yl)amino)ethyl)phenyl)-2-(trifluoromethyl)thiazole-5-carboxamide], for which the 50% inhibitory concentration (IC50) in assay [1] and in assay [2] was under 300 nM throughout.
Consider `CCn1cc2ncc(N[C@@H](C)c3cccc(NC(=O)c4cnc(C5CC5)s4)c3)nc2n1` [Compound 296, (S)-2-cyclopropyl-N-(3-(1-((2-ethyl-2H-pyrazolo[3,4-b]pyrazin-6-yl)amino)ethyl)phenyl)thiazole-5-carboxamide], for which the IC50 in assay [1] and in assay [2] was under 300 nM in each case.
In the case of `CCn1cc(C(=O)Nc2cccc([C@H](C)Nc3cnc4cn(CC)nc4n3)c2)cn1` [Compound 297, (S)-1-ethyl-N-(3-(1-((2-ethyl-2H-pyrazolo[3,4-b]pyrazin-6-yl)amino)ethyl)phenyl)-1H-pyrazole-4-carboxamide], the half-maximal inhibitory concentration (IC50) in assay [1] and in assay [2] was 300 to 1000 nM in each case.
For the molecule `CCn1cc2ncc(N[C@@H](C)c3cccc(NC(=O)c4cnn(CCF)c4)c3)nc2n1` [Compound 298, (S)-N-(3-(1-((2-ethyl-2H-pyrazolo[3,4-b]pyrazin-6-yl)amino)ethyl)phenyl)-1-(2-fluoroethyl)-1H-pyrazole-4-carboxamide], the IC50 in assay [1] was under 300 nM; in assay [2] it was 300 to 1000 nM.
On to `CCn1cc2ncc(N[C@@H](C)c3cccc(NC(=O)c4cnn(C5CC5)c4)c3)nc2n1` [Compound 299, (S)-1-cyclopropyl-N-(3-(1-((2-ethyl-2H-pyrazolo[3,4-b]pyrazin-6-yl)amino)ethyl)phenyl)-1H-pyrazole-4-carboxamide], for which the IC50 in assay [1] is under 300 nM; in assay [2], 300 to 1000 nM.
`CCn1cc2ncc(N[C@@H](C)c3cccc(NC(=O)c4cnn(CC5CC5)c4)c3)nc2n1` [Compound 300, (S)-1-(cyclopropylmethyl)-N-(3-(1-((2-ethyl-2H-pyrazolo[3,4-b]pyrazin-6-yl)amino)ethyl)phenyl)-1H-pyrazole-4-carboxamide]: the IC50 in assay [1] and in assay [2] was under 300 nM each time.
